Laboratory results as given in publication PMC12471852, “Design and Synthesis of Marine-Inspired Itampolin A Derivatives to Overcome Chemoresistance in NSCLC via Cholesterol Homeostasis Modulation” (Marine Drugs, 2025).
Several values for one entry are separate records, joined by “and”; a condition that tells them apart may be missing. Identical values can stand only once. Entries after “also recorded” stand apart in the source; their conditions may differ.

Key:
PC9/GR cells [1] = assay: Transwell migration assay; type: cell-based, human
Protocol: Cell migration was assessed using Transwell chambers (8.0 µm pore size; Corning, NY, USA). Cells suspended in serum-free medium were seeded into the upper chamber. The lower chamber contained 1 mL of DMEM supplemented with 10% FBS as a chemoattractant. Following 24 h of incubation, non-migrated cells on the upper membrane surface were removed. Migrated cells adherent to the lower membrane surface were fixed, stained with 0.1% crystal violet (Solarbio, China) for 15 min, and imaged. Migrated cells were quantified by counting five random fields per insert under a light microscope (Olympus, Tokyo, Japan).

PC9/GR cells [2] = assay: BODIPY 493/503 lipid droplet staining; type: cell-based, human
Text: To investigate the relationship between intracellular cholesterol levels and gefitinib resistance, we measured cholesterol content in PC9 (gefitinib-sensitive) and PC9/GR (gefitinib-resistant) cells. […] To further elucidate the role of TM7SF2 in mediating the cholesterol-lowering effects of compound 4l in PC9/GR cells, we generated a TM7SF2-overexpressing PC9/GR cell line via plasmid transfection.

p38α = p38α (Homo sapiens, UniProt Q16539); assay: ADP-Glo Kinase Assay, p38α MAP kinase inhibition; type: biochemical; conditions: read-out: p38α MAP kinase inhibitory activity IC50
Protocol: The capacity of brominated tyrosine derivatives to inhibit p38α activity was evaluated using the ADP-Glo Kinase Assay.

[3] = tested on: PC9/GR nude mouse xenografts; assay: PC9/GR nude mouse xenograft tumor growth; type: in vivo, BALB/c nude mice
Text: (§1) For many years, the technique of implanting human tumor cell lines into nude mice models has been widely used to predict the anti-cancer effects of targeted anti-cancer drugs. In the nude mouse tumor implantation experiment, we continuously monitored the changes in the mouse body weight after administration. […] At the end of the experiment, after euthanizing the nude mice using the spinal dislocation method, we isolated the tumor tissues, weighed them, and conducted statistical analysis.
(§2) BALB/c nude mice (n = 12) were subcutaneously injected with PC9/GR cells (1 × 10^7 cells/mouse). When tumors reached 50 mm^3, mice received daily 4l or vehicle (3 weeks). Tumor volume (0.52 × length × width^2) and weight were recorded post-euthanasia.

PC9/GR cells [4] = assay: Scratch (wound) healing assay; type: cell-based, human; conditions: for relative wound healing area: vehicle control 44.08%
Protocol: PC9/GR cells were grown to 90% confluence. A uniform wound was created in the monolayer using a sterile 200 µL pipette tip. The initial wound area was imaged immediately (0 h) using phase-contrast microscopy. After 24 h of incubation in complete medium, the wound area was re-imaged. The relative wound closure rate was calculated from the change in wound area using ImageJ software (version 1.53).

TM7SF2 = assay: Transcriptome sequencing, differentially expressed genes; type: cell-based, human; conditions: 4l-treated vs untreated PC9/GR
Text: By comparing PC9/GR treated with the small molecule compound 4l against untreated PC9/GR controls, we identified significant differentially expressed genes (DEGs). […] The results of the GO enrichment analysis further emphasized the significant impact of the small molecule compound 4l on steroid biosynthesis and metabolism in lung cancer cells, with the top five pathways being steroid biosynthesis, steroid metabolism, the metabolism of hydroxylated compounds, steroid biosynthesis, and cholesterol biosynthesis (Figure 4C). […] TM7SF2 has been identified as a critical regulator of cholesterol biosynthesis and steroid metabolism in lung cancer cells, a finding central to overcoming chemoresistance in NSCLC [28]. Thus, we selected TM7SF2 as the target gene for further experiments and investigated the protein expression of TM7SF2 in 4l-treated PC9/GR cells using immunoblotting.

PC9 cells = assay: Intracellular total cholesterol quantification, PC9 cells; type: cell-based, human; conditions: PC9, 24 h treatment
Protocol: Following sample collection, intracellular total cholesterol levels were quantified using a commercial Total Cholesterol (T-CHO) assay kit (Nanjing Jiancheng Bioengineering Institute, Nanjing, China) according to the manufacturer’s protocol. Cells were treated as indicated 24 h prior to analysis. Total cellular protein was extracted, and protein concentration was determined using a bicinchoninic acid (BCA) assay. Protein aliquots were loaded in duplicate into a 96-well microplate. Reagents were added sequentially as specified in the kit instructions. After incubation at 37 °C for 10 min, absorbance was measured at 510 nm using a microplate reader. Total cholesterol content was normalized to cellular protein concentration and expressed as μg cholesterol per mg protein.

[5] = Body weight / toxicity monitoring in tumor-bearing nude mice; type: in vivo, BALB/c nude mice
Text: as §1, §2

PC9/GR cells [6] = assay: Annexin V-FITC/PI apoptosis, flow cytometry; type: cell-based, human; conditions: 24 h, vehicle control 5.2%
Protocol: To evaluate the tumor-selective activity of compounds 4l and 4m, dose–response studies were performed on wild-type PC9 and gefitinib-resistant PC9/GR cell lines. […] Subtoxic concentrations of 25, 50, and 75 μM were employed to ensure specificity for drug-resistant phenotypes while preserving normal cell viability. […] To assess long-term proliferative potential, clonogenic survival assays were performed. Cells pretreated with 4l (24 h) were trypsinized to generate single-cell suspensions, plated at 300 cells/well, and cultured for 14 days. […] Cell migration ability was evaluated by the scratch healing assay. […] To evaluate the pro-apoptotic efficacy of 4l, we employed a dual-staining approach using Annexin V-FITC and propidium iodide (PI) for quadrant-specific quantification of programmed cell death. Annexin V binds externalized phosphatidylserine (PS), a hallmark of early apoptosis, while PI permeabilization discriminates late-stage apoptotic or necrotic cells.
Annexin V/PI Apoptosis: 4l treated cells were stained with Annexin VFITC/PI (15 min, dark), analyzed by flow cytometry (Q2/Q3: late/early apoptosis).

[7] = fourth column = 75 μM by match with b18
[8] = second column = 25 μM by match with b18
[9] = third column = 50 μM by match with b18

Chain of p38α (Q16539 whole entry): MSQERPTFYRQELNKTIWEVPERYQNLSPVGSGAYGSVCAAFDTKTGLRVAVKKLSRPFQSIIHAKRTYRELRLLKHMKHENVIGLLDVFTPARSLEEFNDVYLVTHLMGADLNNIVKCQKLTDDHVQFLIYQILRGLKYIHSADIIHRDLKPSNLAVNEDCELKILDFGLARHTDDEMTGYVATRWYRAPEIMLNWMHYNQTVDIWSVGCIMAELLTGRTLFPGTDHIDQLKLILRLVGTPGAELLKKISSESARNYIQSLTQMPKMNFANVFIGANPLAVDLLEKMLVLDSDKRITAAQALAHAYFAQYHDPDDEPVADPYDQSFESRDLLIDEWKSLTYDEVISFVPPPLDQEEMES

O=C(NCCc1cc(Br)c(O)c(Br)c1)Nc1ccc(F)cc1 [4l, 1-(3,5-dibromo-4-hydroxyphenethyl)-3-(4-fluorophenyl)urea]
PC9/GR cell motility (Transwell migration) (PC9/GR cells [1]; 25, 50 and 75 μM): significant suppression
effect of TM7SF2 overexpression on 4l inhibition of migration, proliferation and invasion (PC9/GR cells [1]; TM7SF2-overexpressing PC9/GR cells): attenuated the inhibitory effects
lipid droplet accumulation (PC9/GR cells [2]): significantly inhibited this lipid accumulation
IC50 (p38α): 9.7 ± 1.4 nM
tumor growth inhibition compared to gefitinib-treated group ([3]; 200 mg/kg of gefitinib and compound 4l): stronger inhibitory effect
in vivo growth of PC9/GR xenografts (tumor volume) ([3]; 200 mg/kg, daily, 3 weeks, p < 0.05): effectively inhibited; also recorded: significant suppression; also recorded: significantly inhibited tumor growth
excised tumor weight ([3]; end of experiment): consistent with the volume data
relative wound healing area (PC9/GR cells [4]; 25 μM): 25.32%
relative wound healing area (PC9/GR cells [4]; 50 μM): 27.45%
relative wound healing area (PC9/GR cells [4]; 75 μM): 15.45%
relative wound healing area, mean of replicates (PC9/GR cells [4]; [7]): 15.4595
relative wound healing area, single replicate (PC9/GR cells [4]; [7]): 9.798 and 22.5542 and 10.9511 and 18.5341
relative wound healing area, mean of replicates (PC9/GR cells [4]; [8]): 25.3251
relative wound healing area, single replicate (PC9/GR cells [4]; [8]): 23.8842 and 10.9955 and 36.4639 and 29.9568
relative wound healing area, mean of replicates (PC9/GR cells [4]; [9]): 27.4562
relative wound healing area, single replicate (PC9/GR cells [4]; [9]): 33.9434 and 27.2189 and 28.6416 and 20.021
TM7SF2 gene expression (differentially expressed genes) (TM7SF2): significantly downregulated
intracellular cholesterol levels (PC9 cells): no significant effect
mouse body weight after administration ([5]; 200 mg/kg, 21 days): no significant decrease or fluctuation
toxicity to nude mice / systemic toxicity ([5]; dosage used in the xenograft experiment): did not have significant toxicity; also recorded: without eliciting systemic toxicity; also recorded: without inducing systemic toxicity
total apoptosis (PC9/GR cells [6]; 25 μM): 9.1%
total apoptosis (PC9/GR cells [6]; 50 μM): 13.13%
total apoptosis (PC9/GR cells [6]; 75 μM): 19.53%
